Consider 26 molecules from patent US8058475B2, “Substituted cyclohexylmethyl compounds” (Gruenenthal GmbH, priority 2005, dated 2011).

The term Ki denotes the dissociation constant of the complex between target and ligand, obtained from inhibition or displacement. A word on the inhibition: it is the change of the read-out against control, counted positive when it falls.

In assay [1] the target is T1, Noradrenaline (NA) reuptake (Rattus norvegicus, UniProt Q63380).
T1 construct: synaptosomes are freshly isolated from areas of rat brain; from tissue; host or cells: rat hypothalamus synaptosomes (P2 fraction)
T1 sequence (Q63380 1-617): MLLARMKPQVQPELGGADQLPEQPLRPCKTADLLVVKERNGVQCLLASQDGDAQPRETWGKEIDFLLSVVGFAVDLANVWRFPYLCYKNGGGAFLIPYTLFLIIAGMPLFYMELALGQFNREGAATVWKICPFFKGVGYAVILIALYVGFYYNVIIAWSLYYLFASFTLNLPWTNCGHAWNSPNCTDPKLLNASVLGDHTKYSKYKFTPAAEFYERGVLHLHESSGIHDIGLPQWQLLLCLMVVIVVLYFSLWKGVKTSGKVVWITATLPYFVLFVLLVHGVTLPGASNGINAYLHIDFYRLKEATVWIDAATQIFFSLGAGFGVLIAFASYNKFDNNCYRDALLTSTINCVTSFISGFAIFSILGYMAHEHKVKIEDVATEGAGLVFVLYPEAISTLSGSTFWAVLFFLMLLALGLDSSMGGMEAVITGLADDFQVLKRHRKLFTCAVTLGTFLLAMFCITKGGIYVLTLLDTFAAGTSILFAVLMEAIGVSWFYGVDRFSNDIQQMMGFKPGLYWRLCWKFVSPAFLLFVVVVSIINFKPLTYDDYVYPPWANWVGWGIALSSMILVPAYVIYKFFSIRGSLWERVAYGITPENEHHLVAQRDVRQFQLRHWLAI
The experiment in a line: Noradrenaline (NA) reuptake inhibition in rat brain synaptosomes (hypothalamus, P2 fraction). The assay is classed as biochemical. The procedure, abridged:
(§1)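 Freshly isolated rat brain synaptosomes (P2 fraction, Gray–Whittaker method) used for uptake; for NA uptake the particles came from hypothalamus of male rats.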

For the next assay, the target named is human μ-opiate receptor (Homo sapiens, UniProt P35372). The experiment in a line: Affinity for the human μ-opiate receptor ([3H]-naloxone displacement, SPA, CHO-K1 membrane preparation). The assay is classed as binding. As to conditions: for inhibition at 1 µM: read-out: μ-Opioid receptor, % inhibition [1 μM]; for Ki: read-out: μ-Opioid receptor, Ki.
Chain of human μ-opiate receptor (P35372 whole entry): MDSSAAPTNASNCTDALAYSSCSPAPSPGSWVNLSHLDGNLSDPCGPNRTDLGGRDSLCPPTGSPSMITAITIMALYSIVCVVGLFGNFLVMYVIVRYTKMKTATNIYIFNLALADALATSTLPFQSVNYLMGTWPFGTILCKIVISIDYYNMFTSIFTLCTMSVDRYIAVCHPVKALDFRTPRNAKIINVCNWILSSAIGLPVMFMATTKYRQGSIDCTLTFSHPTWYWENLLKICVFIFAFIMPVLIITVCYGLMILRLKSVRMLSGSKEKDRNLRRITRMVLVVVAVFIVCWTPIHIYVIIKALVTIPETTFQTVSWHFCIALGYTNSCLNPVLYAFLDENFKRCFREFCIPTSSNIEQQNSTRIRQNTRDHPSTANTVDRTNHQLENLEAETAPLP
For another assay, the target named is T2, Serotonin (5HT) reuptake (Rattus norvegicus, UniProt P31652).
T2 construct: synaptosomes are freshly isolated from areas of rat brain; from tissue; host or cells: rat brain synaptosomes (P2 fraction)
T2 sequence (P31652 whole entry): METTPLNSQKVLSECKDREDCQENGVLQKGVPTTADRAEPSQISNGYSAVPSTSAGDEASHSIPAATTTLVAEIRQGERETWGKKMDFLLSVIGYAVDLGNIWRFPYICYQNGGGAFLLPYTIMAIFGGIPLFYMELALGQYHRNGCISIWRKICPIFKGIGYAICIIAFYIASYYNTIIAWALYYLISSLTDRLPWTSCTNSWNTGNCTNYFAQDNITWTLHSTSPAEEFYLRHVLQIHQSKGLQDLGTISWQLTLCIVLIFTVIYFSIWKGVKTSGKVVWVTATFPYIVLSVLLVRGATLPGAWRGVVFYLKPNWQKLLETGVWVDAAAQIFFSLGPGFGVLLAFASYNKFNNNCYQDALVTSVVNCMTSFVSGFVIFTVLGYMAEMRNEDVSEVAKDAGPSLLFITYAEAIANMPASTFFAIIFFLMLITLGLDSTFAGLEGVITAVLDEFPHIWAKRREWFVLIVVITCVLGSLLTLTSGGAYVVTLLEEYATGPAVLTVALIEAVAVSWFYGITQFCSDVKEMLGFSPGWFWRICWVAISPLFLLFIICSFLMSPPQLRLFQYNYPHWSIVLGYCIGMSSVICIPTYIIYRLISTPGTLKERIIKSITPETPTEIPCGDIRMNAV
The experiment in a line: Serotonin (5HT) reuptake inhibition in rat brain synaptosomes (P2 fraction). Format: biochemical. As to conditions: for inhibition at 10 µM: read-out: Serotonin reuptake, % inhibition [10 μM]. The gist of the method:
as §1

Where [2] appears, read: read-out: Na reuptake, % inhibition [10 μM].
[3] abbreviates: read-out: NA reuptake, % inhibition [10 μM].
Setting [4] is: 1 μM test substance, inhibition of specific [3H]-naloxone binding.

SMILES strings stand for the structures. Counter-ions that a name gives are not always drawn. Like-named read-outs stand apart in the source and are kept apart here.

In the case of `CCC(=O)N(CCCCc1ccccc1)C1CCC(C(c2ccccc2)N(C)C)CC1` (stereo not shown) [compound 97, N-(4-((dimethylamino)(phenyl)methyl)cyclohexyl)-N-(4-phenylbutyl)propionamide hydrochloride], the Ki in assay [1] was 700 nM; at human μ-opiate receptor, 3.7 nM; at Serotonin (5HT) reuptake it was 990 nM. For the same molecule, the inhibition at 10 µM is 94% in assay [1] (setting [2]) and 76% at Serotonin (5HT) reuptake. Also, the inhibition at 1 µM on human μ-opiate receptor stood at 97%.
In the case of `CN(C)C(c1cccc(F)c1)C1CCC(O)CC1` (stereo not shown) [compound 113, 4-[dimethylamino-(3-fluorophenyl)-methyl]-cyclohexanol], the inhibition at 10 µM turned out to be 82% in assay [1] (setting [3]) and 83% at Serotonin (5HT) reuptake. For the same molecule, at human μ-opiate receptor (setting [4]), the inhibition at 1 µM was determined as 46%.
On to `CN(C)C(c1ccccc1)C1CCC(N(Cc2ccccc2)C(=O)c2ccc(F)cc2)CC1` (stereo not shown) [compound 103, N-benzyl-N-(4-((dimethylamino)(phenyl)methyl)cyclohexyl)-4-fluoro-benzamide hydrochloride], for which the Ki amounted to 400 nM in assay [1], 8.8 nM at human μ-opiate receptor and 560 nM on Serotonin (5HT) reuptake. Moreover, the inhibition at 10 µM in assay [1] (setting [2]) turned out to be 87%; on Serotonin (5HT) reuptake, 93%. Also, the inhibition at 1 µM at human μ-opiate receptor stood at 99%.
Consider `CN(C)C(c1ccccc1)C1CCC(NC(=O)Nc2ccc(Br)cc2)CC1` (stereo not shown) [compound 81, 1-(4-bromophenyl)-3-(4-((dimethylamino)(phenyl)methyl)cyclohexyl)urea], for which the inhibition at 10 µM (in assay [1] (setting [3]); on Serotonin (5HT) reuptake) was 97% in each case. In addition, on human μ-opiate receptor (setting [4]), the inhibition at 1 µM turned out to be 95%. Further, the Ki at human μ-opiate receptor was determined as 33 nM.
On to `CN(C)C(c1cccs1)C1CCC(CCN)CC1` (stereo not shown) [compound 69, 2-[4-(dimethylamino-thiophen-2-yl-methyl)-cyclohexyl]-ethylamine], for which the inhibition at 10 µM in assay [1] (setting [3]) stood at 98%; on Serotonin (5HT) reuptake it was 83%. Moreover, the inhibition at 1 µM at human μ-opiate receptor (setting [4]) worked out at 61%.
On to `CCOC(=O)CC1CCC(C(c2cccc(F)c2)N(C)C)CC1` (stereo not shown) [compound 130, {4-[dimethylamino-(3-fluorophenyl)-methyl]-cyclohexyl}-acetic acid ethyl ester], for which the inhibition at 10 µM in assay [1] (setting [3]) was determined as 82%; on Serotonin (5HT) reuptake, 93%. Also, on human μ-opiate receptor (setting [4]), the inhibition at 1 µM was 82%. For the same molecule, the Ki at human μ-opiate receptor was determined as 230 nM; on Serotonin (5HT) reuptake it was 16 nM.
In the case of `CN(C)C(CCc1ccccc1)C1CCC(CO)CC1` (stereo not shown) [compound 122, [4-(1-dimethylamino-3-phenyl-propyl)-cyclohexyl]-methanol], the inhibition at 10 µM was determined as 97% in assay [1] (setting [3]) and 77% on Serotonin (5HT) reuptake. The inhibition at 1 µM at human μ-opiate receptor (setting [4]) was determined as 32%.
For `CCC(CC)C(=O)N(Cc1ccccc1)C1CCC(C(c2ccccc2)N(C)C)CC1` (stereo not shown) [compound 101, N-benzyl-N-(4-((dimethylamino)(phenyl)methyl)cyclohexyl)-2-ethylbutanamide hydrochloride], the Ki in assay [1] was 670 nM; on human μ-opiate receptor, 2.3 nM; on Serotonin (5HT) reuptake, 880 nM. For the same molecule, the figures for the inhibition at 10 µM (in assay [1] (setting [2]); on Serotonin (5HT) reuptake) were 86% and 81%, respectively. For the same molecule, on human μ-opiate receptor, the inhibition at 1 µM came out at 101%.
Regarding `CN(C)C(CCc1ccccc1)C1CCC(O)CC1` (stereo not shown) [compound 116, 4-(1-dimethylamino-3-phenyl-propyl)-cyclohexanol], the figures for the inhibition at 10 µM (in assay [1] (setting [3]); at Serotonin (5HT) reuptake) were 95% and 74%, respectively. At human μ-opiate receptor (setting [4]), the inhibition at 1 µM is 37%.
As to `CN(C)C(c1ccccc1)C1CCC(NC(=O)Nc2ccc(F)cc2F)CC1` (stereo not shown) [compound 74, 1-(2,4-difluorophenyl)-3-(4-((dimethylamino)(phenyl)methyl)cyclohexyl)urea hydrochloride], the Ki in assay [1] was found to be 220 nM; on human μ-opiate receptor, 160 nM; at Serotonin (5HT) reuptake, 120 nM. The results for the inhibition at 10 µM (in assay [1] (setting [3]); on Serotonin (5HT) reuptake) were 93% and 86%, respectively. Further, at human μ-opiate receptor (setting [4]), the inhibition at 1 µM is 88%.
In the case of `CN(C)C(c1ccccc1)C1CCC(NS(=O)(=O)c2ccccc2)CC1` (stereo not shown) [compound 110, N-(4-((dimethylamino)(phenyl)methyl)cyclohexyl)benzenesulfonamide hydrochloride], the results for the inhibition at 10 µM (in assay [1] (setting [3]); at Serotonin (5HT) reuptake) were 62% and 86%, respectively. Also, the inhibition at 1 µM on human μ-opiate receptor (1 μM, sulfonamides (Table 17)) was 93%. Also, the Ki at human μ-opiate receptor (sulfonamides (Table 17)) was found to be 25 nM.
For `CN(C)C(CCc1ccccc1)C1CCC(CCCO)CC1` (stereo not shown) [compound 143, 3-[4-(1-dimethylamino-3-phenyl-propyl)-cyclohexyl]-propan-1-ol], the inhibition at 10 µM in assay [1] (setting [3]) amounted to 100%; on Serotonin (5HT) reuptake, 90%. In addition, at human μ-opiate receptor (setting [4]), the inhibition at 1 µM came out at 24%.
Turning to `COc1ccc(S(=O)(=O)NC2CCC(C(c3ccccc3)N(C)C)CC2)cc1` (stereo not shown) [compound 107, N-(4-((dimethylamino)(phenyl)methyl)cyclohexyl)-4-methoxybenzene-sulfonamide hydrochloride], the inhibition at 10 µM in assay [1] (setting [3]) was 78%; at Serotonin (5HT) reuptake it was 90%. Besides, the inhibition at 1 µM on human μ-opiate receptor (1 μM, sulfonamides (Table 17)) turned out to be 99%. Moreover, the Ki on human μ-opiate receptor (sulfonamides (Table 17)) is 15 nM.
For the molecule `CN(C)C(c1ccc(F)cc1)C1CCC(CO)CC1` (stereo not shown) [compound 118, {4-[dimethylamino-(4-fluorophenyl)-methyl]-cyclohexyl}-methanol], the values for the inhibition at 10 µM (in assay [1] (setting [3]); on Serotonin (5HT) reuptake) were 91% and 90%, respectively. On human μ-opiate receptor (setting [4]), the inhibition at 1 µM is 33%.
In the case of `CN(C)C(c1ccccc1)C1CCC(NCCCc2ccccc2)CC1` (stereo not shown) [compound 85, 4-((dimethylamino)(phenyl)methyl)-N-(3-phenylpropyl)cyclohexanamine dihydrochloride], the results for the inhibition at 10 µM (in assay [1] (setting [3]); at Serotonin (5HT) reuptake) were 103% and 77%, respectively. The inhibition at 1 µM at human μ-opiate receptor (setting [4]) was 98%. The Ki on human μ-opiate receptor came to 2.8 nM.
On to `CN(C)C(c1ccccc1)C1CCC(CCCO)CC1` (stereo not shown) [compound 134, 3-[4-(dimethylamino-phenyl-methyl)-cyclohexyl]-propan-1-ol], for which the inhibition at 10 µM was 90% in assay [1] (setting [3]) and 86% at Serotonin (5HT) reuptake. Besides, the inhibition at 1 µM on human μ-opiate receptor (setting [4]) was found to be 45%.
As for `CN(C)C(c1cccc(F)c1)C1CCC(N)CC1` (stereo not shown) [compound 21, 4-[dimethylamino-(3-fluorophenyl)-methyl]-cyclohexylamine], the inhibition at 10 µM in assay [1] (setting [3]) was found to be 90%; at Serotonin (5HT) reuptake, 80%. Moreover, the inhibition at 1 µM at human μ-opiate receptor (setting [4]) was found to be 48%.
Take `CN(C)C(c1cccs1)C1CCC(CO)CC1` (stereo not shown) [compound 121, [4-(dimethylamino-thiophen-2-yl-methyl)-cyclohexyl]-methanol]: the inhibition at 10 µM in assay [1] (setting [3]) is 66%; on Serotonin (5HT) reuptake, 74%. Also, at human μ-opiate receptor (setting [4]), the inhibition at 1 µM stood at 61%.
In the case of `CCOC(=O)CCC1CCC(C(c2ccccc2)N(C)C)CC1` (stereo not shown) [compound 133, 3-[4-(dimethylamino-phenyl-methyl)-cyclohexyl]-propionic acid ethyl ester], the inhibition at 10 µM was 87% in assay [1] (setting [3]) and 89% at Serotonin (5HT) reuptake. For the same molecule, the inhibition at 1 µM at human μ-opiate receptor (setting [4]) was determined as 81%. Besides, the Ki on human μ-opiate receptor was 96 nM; at Serotonin (5HT) reuptake it was 99 nM.
Take `CN(C)C(c1ccccc1)C1CCC(CN)CC1` (stereo not shown) [compound 30, [(4-aminomethyl-cyclohexyl)-phenyl-methyl]-dimethylamine]: the inhibition at 10 µM (in assay [1] (setting [3]); at Serotonin (5HT) reuptake) was 89% throughout. The inhibition at 1 µM on human μ-opiate receptor (setting [4]) came out at 94%. For the same molecule, the Ki at human μ-opiate receptor was found to be 210 nM.
In the case of `CN(C)C(c1ccccc1)C1CCC(NCCc2ccccc2)CC1` (stereo not shown) [compound 84, 4-((dimethylamino)(phenyl)methyl)-N-phenethylcyclohexanamine hydrochloride], the inhibition at 10 µM turned out to be 93% in assay [1] (setting [3]) and 76% on Serotonin (5HT) reuptake. Besides, the inhibition at 1 µM on human μ-opiate receptor (setting [4]) was 95%. The Ki at human μ-opiate receptor worked out at 12 nM.
Consider `CN(C)C(c1ccccc1)C1CCC(CCO)CC1` (stereo not shown) [compound 125, 2-[4-(dimethylamino-phenyl-methyl)-cyclohexyl]-ethanol], for which the inhibition at 10 µM in assay [1] (setting [3]) was 86%; at Serotonin (5HT) reuptake, 82%. Also, at human μ-opiate receptor (setting [4]), the inhibition at 1 µM is 62%.
Take `CN(C)C(c1ccccc1)C1CCC(NC(=O)Nc2cccc(Br)c2)CC1` (stereo not shown) [compound 77, 1-(3-bromophenyl)-3-(4-((dimethylamino)(phenyl)methyl)cyclohexyl)urea hydrochloride]: the figures for the inhibition at 10 µM (in assay [1] (setting [3]); on Serotonin (5HT) reuptake) were 93% and 84%, respectively. Moreover, the inhibition at 1 µM at human μ-opiate receptor (setting [4]) amounted to 88%. Also, the inhibitory constant (Ki) at human μ-opiate receptor amounted to 78 nM.
For the molecule `CCOC(=O)CC1CCC(C(c2ccccc2)N(C)C)CC1` (stereo not shown) [compound 124, [4-(dimethylamino-phenyl-methyl)-cyclohexyl]-acetic acid ethyl ester], the inhibition at 10 µM in assay [1] (setting [3]) turned out to be 76%; on Serotonin (5HT) reuptake it was 85%. The inhibition at 1 µM at human μ-opiate receptor (setting [4]) was found to be 79%. Further, the Ki on human μ-opiate receptor came out at 79 nM; at Serotonin (5HT) reuptake it was 97 nM.
With `CN(C)C(c1cccc(F)c1)C1CCC(CCO)CC1` (stereo not shown) [compound 131, 2-{4-[dimethylamino-(3-fluorophenyl)-methyl]-cyclohexyl}-ethanol], the inhibition at 10 µM in assay [1] (setting [3]) turned out to be 89%; on Serotonin (5HT) reuptake it was 91%. Also, at human μ-opiate receptor (setting [4]), the inhibition at 1 µM came out at 68%.
Take `CCOC(=O)C=CC1CCC(C(c2ccc(F)cc2)N(C)C)CC1` (stereo not shown) [compound 135, 3-{4-[dimethylamino-(4-fluorophenyl)-methyl]-cyclohexyl}-acrylic acid ethyl ester]: the figures for the Ki (in assay [1]; at human μ-opiate receptor; on Serotonin (5HT) reuptake) were 490 nM, 380 nM and 220 nM, respectively. In addition, the figures for the inhibition at 10 µM (in assay [1] (setting [3]); on Serotonin (5HT) reuptake) were 90% and 78%, respectively. The inhibition at 1 µM at human μ-opiate receptor (setting [4]) came out at 70%.
